From patent US20100143386A1, “FGFR4 Promotes Cancer Cell Resistance in Response to Chemotherapeutic Drugs” (Max-Planck-Gesellschaft zur foerderung der Wissenschaften, …, priority 2006, published 2010)

Key:
Bcl-xl expression = details: MCF7-FGFR4 cells, 10 μM U0126 for 6 hours and 12 hours
Experimental: RNA was isolated using the RNeasy Mini Kit (Qiagen, Hilden, Germany) and reversely transcribed into cDNA using the AMV reverse transcriptase (Roche, Mannheim, Germany) and OligodT-Primer (Gibco, Germany). The RNA and cDNA concentration was measured using the NanoDrop ND1000 (PeqLab, Erlangen, Germany) system. […] PCR products were subjected to electrophoresis on a 2% agarose gel and DNA was visualized by ethidium bromide staining.

[1] = test system: Fgfr4 mediated downstream signalling (p-Erk); experiment: FGF19 induced MAPK activation (P-ERK immunoblot) in breast cancer cell lines; assay type: cell-based; details: BT-474, MDA-MB-361 and ZR75-1 starved 48 h; compared to not stimulated control cells
Experimental: Secondary HRP-conjugated antibodies were goat anti-mouse (Sigma, Taufkirchen, Germany) and goat anti-rabbit (Biorad, Munich, Germany).
Cell cultures were washed with PBS and incubated at 4° C. with lysis buffer (50 mM HEPES/NaOH, pH 7.5, 150 mM NaCl, 1 mM EDTA, 10% glycerol and 1% Triton X-100) supplemented with phosphatase and protease inhibitors (10 mM sodium pyrophosphate, 1 mM PMSF, 2 mM sodium orthovanadate, 10 μg/ml aprotinin). Cellular debris was removed by centrifugation. Protein concentration measurements were performed using the Micro-BCA-Protein-Assay Kit from Pierce (Bonn, Germany). For immunoprecipitations, whole-cell lysates were combined with antibody and 30 μl of protein A- or G-sepharose slurry (GE Healthcare). The samples were incubated for 3 h on a rotation wheel at 4° C. The precipitates were washed three times with HNTG buffer (20 mM HEPES/NaOH, pH 7.5, 150 mM NaCl, 10% glycerol, 0.1% Triton X-100 and 10 mM sodium pyrophosphate) suspended in 3×SDS sample buffer, boiled for 3 min and subjected to SDS-PAGE. For Western blot analysis, proteins were transferred to nitrocellulose membranes and incubated with the appropriate antibodies. Signals were developed via an enhanced chemiluminescence detection system (ECL, Perkin Elmer, Wellesley, Mass.). Before reprobing, membranes were stripped with 65 mM Tris/HCl pH 6.8 buffer containing 2% SDS at 50° C. for 1 h.

Row | Compound | Bcl-xl expression (semiquantitative PCR) (Bcl-xl expression) | p-Erk-levels on FGF19 stimulation [1]
1 | N#CC(=C(/N)Sc1ccccc1N)/C(C#N)=C(\N)Sc1ccccc1N [U0126] | abolished | 
2 | FGF19: specific ligand of Fgfr4, FGF-Ligands purchased from TEBU |  | increased
